Assay results taken from US5177069A, “Naphthysulfonylalkanoic acid compounds and pharmaceutical compositions thereof” (Kissei Pharmaceutical Co., Ltd., priority 1989, dated 1993).

How the values were obtained:
CCK-receptor = target: T1, CCK-receptor (Rattus norvegicus, UniProt P30551); assay: CCK-receptor binding assay in pancreas (125I-CCK-8, pancreatic plasma membranes); set-up: species or system Male Wistar rats; conditions: 30 pM 125I-CCK-8, rat pancreatic plasma membranes, 37° C., 30 minutes; inhibition of specific binding
T1 construct: Pancreatic plasma membranes were prepared by the method of Chang et al; from tissue; host or cells: pancreas of male Wistar rats (pancreatic plasma membranes)
T1 sequence (P30551 1-444): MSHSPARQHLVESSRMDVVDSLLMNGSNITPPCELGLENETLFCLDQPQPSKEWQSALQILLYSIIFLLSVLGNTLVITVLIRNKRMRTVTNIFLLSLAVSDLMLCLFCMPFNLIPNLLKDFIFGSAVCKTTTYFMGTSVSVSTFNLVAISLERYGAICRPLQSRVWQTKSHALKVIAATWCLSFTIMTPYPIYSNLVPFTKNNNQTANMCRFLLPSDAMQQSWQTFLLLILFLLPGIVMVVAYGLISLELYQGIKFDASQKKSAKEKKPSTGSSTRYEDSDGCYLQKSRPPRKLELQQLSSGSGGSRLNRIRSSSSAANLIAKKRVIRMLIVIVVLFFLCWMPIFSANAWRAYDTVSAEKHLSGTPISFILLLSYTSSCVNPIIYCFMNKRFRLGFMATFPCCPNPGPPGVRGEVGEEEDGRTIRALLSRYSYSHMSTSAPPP
Method: CCK-receptor binding assay in pancreas
Pancreatic plasma membranes were prepared by the method of Chang et al. (Molecular Pharmacology, Vol. 30, p. 212-, 1986). Male Wistar rats were sacrificed by decapitation and the pancreas was removed. The pancreas was dissected free from adipose tissue and minced in 50 volumes ice-cold Tris-HCl buffer (50 mM, pH 7.4 at 37° C.). Homogenization was performed using ultra disperser and the homogenate was centrifuged at 50,000×g for 10 minutes. The pellet was washed by resuspension in the same volume of fresh Tris-HCl buffer and again centrifuged as above. The final pellet was suspended in assay buffer (50 mM Tris-HCl, 5 mM MgCl2, 5 mM dithiothreitol, 2 mg/ml of bovine serum albumin, and 0.14 mg/ml of bacitracin), and used as receptor sources for binding assay.
Thirty pM ^125 I-CCK-8 (final concentration), test drug or vehicle (for total binding) or 10^-6 M CCK-8 (for nonspecific binding) were added to the assay medium containing pancreatic plasma membranes (0.5 mg of original wet weight/ml). After incubation at 37° C. for 30 minutes, the assay medium was filtrated under reduced pressure through glass fiber filter and washed four times with 4 ml of ice-cold Tris-HCl buffer. The radioactivity trapped on the filter was counted by γ-counter (Packard 5650).
Specific binding was defined as the radioactivity bound after subtracting nonspecific binding determined in the presense of 10^-6 M unlabeled CCK-8. IC50 value was calculated from inhibition percentage of specific binding by each test drug.

isolated gallbladder = assay: CCK-antagonism in isolated gallbladder (contraction induced by CCK-8); assay type: cell-based, male Hartley guinea-pig; conditions: Cavia porcellus; guinea-pig gallbladder strips, Krebs solution 37° C.; contraction induced by 10^-8 M CCK-8
Method: CCK-antagonism in isolated gallbladder
Gallbladder strips isolated from male Hartley guinea-pig were prepared and suspended in Magnus bath filled with Krebs solution (1 g of initial tension). The solution kept at 37° C. was aerated with a mixture of 95% O2 and 5% CO2. The isometric contraction of strips was recorded through a force-displacement transducer. Antagonism by test drugs against gallbladder contraction induced by 10^-8 M CCK-8 was examined and IC50 value was calculated.

amylase secretion = assay: Effect on amylase secretion in rats (stimulated by CCK-8); assay type: in vivo, Male Wistar rats; conditions: Rattus norvegicus; intraduodenal, 30 minutes before subcutaneous CCK-8 (10 μg/kg); urethane-anesthetized rats
Method: Effect on amylase secretion in rats
Male Wistar rats were anesthetized with urethane (1.5 g/kg, S.C.), and tracheal cannula was inserted. Biliopancreatic juice was collected from the cannula which had been inserted into the common bile duct. Thirty minutes after intraduodenal administration of test drug, amylase secretion was stimulated by subcutaneous injection of CCK-8 (10 μg/kg). Amylase concentration in the sample collected every 30 minutes during experiment was assayed using Amylase B Test (Wako), and ED50 value was calculated.

Row | SMILES | IC50 (CCK-receptor) | IC50 (isolated gallbladder) | ED50 (amylase secretion)
1 | CCCCCN(CCCOC)C(=O)C(CCC(=O)OC)CS(=O)(=O)c1ccc2ccccc2c1 (racemic) [Compound No. 3, methyl 4-[N-(3-methoxypropyl)-N-pentylcarbamoyl]-5-(2-naphthylsulfonyl)pentanoate] | 2400 nM | – | –
2 | CCCCCN(CC(=O)OCC)C(=O)C(CCC(=O)OCc1ccccc1)CS(=O)(=O)c1ccc2ccccc2c1 (racemic) [compound 6, benzyl 4-(N-ethoxycarbonylmethyl-N-pentylcarbamoyl)-5-(2-naphthylsulfonyl)pentanoate] | 1700 nM | – | –
3 | CCCCCN(CC(=O)OCC)C(=O)C(CCC(=O)OC)CS(=O)(=O)c1ccc2ccccc2c1 (racemic) [compound 7, methyl 4-(N-ethoxycarbonylmethyl-N-pentylcarbamoyl)-5-(2-naphthylsulfonyl)pentanoate] | 1700 nM | – | –
4 | CCCCCN(CCCOC)C(=O)C(CCC(=O)O)CS(=O)(=O)c1ccc2ccccc2c1 (single isomer, unassigned) [compound 23] | 3300 nM | – | –
5 | CCCCCN(CC(=O)OC(C)(C)C)C(=O)C(CCC(=O)O)CS(=O)(=O)c1ccc2ccccc2c1 (single isomer, unassigned) [compound 26] | 25 nM | – | –
6 | CCCCCN(CCCOC)C(=O)C(CCC(=O)O)CS(=O)(=O)c1ccc2ccccc2c1 (single isomer, unassigned; (-)) [compound 22, (-)-4-[N-(3-methoxypropyl)-N-pentylcarbamoyl]-5-(2-naphthylsulfonyl)pentanoic acid] | 120 nM | 2800 nM | –
7 | CCCCCN(CC(=O)O)C(=O)C(CCC(=O)OC)CS(=O)(=O)c1ccc2ccccc2c1 (stereo not shown) [Compound No. 15, N-[2-(2-Methoxycarbonylethyl)-3-(2-naphthylsulfonyl)propionyl]-N-pentylglycine] | 7300 nM | – | –
8 | CCCCCN(CCCOC)C(=O)C(CCC(=O)O)CS(=O)(=O)c1ccc2ccccc2c1 (stereo not shown) [Compound No. 18, 4-[N-(3-Methoxypropyl)-N-pentylcarbamoyl]-5-(2-naphthylsulfonyl)pentanoic acid] | 340 nM | 6800 nM | 15.7 mg/kg
9 | CCCCCN(CC(=O)OCC)C(=O)C(CCC(=O)O)CS(=O)(=O)c1ccc2ccccc2c1 (stereo not shown) [Compound No. 19, 4-(N-Ethoxycarbonylmethyl-N-pentylcarbamoyl)-5-(2-naphthylsulfonyl)pentanoic acid] | 320 nM | 2100 nM | 33.3 mg/kg
10 | COC(=O)CCC(CS(=O)(=O)c1ccc2ccccc2c1)C(=O)N(CCC1CCCCC1)CCC1CCCCC1 (stereo not shown) [Compound No. 34, Methyl 4-[N,N-bis(2-cyclohexylethyl)carbamoyl]-5-(2-naphthylsulfonyl)pentanoate] | 1700 nM | – | –
11 | O=C(O)CCC(CS(=O)(=O)c1ccc2ccccc2c1)C(=O)N(CCC1CCCCC1)CCC1CCCCC1 (stereo not shown) [Compound No. 39, 4-[N,N-Bis(2-cyclohexylethyl)carbamoyl]-5-(2-naphthylsulfonyl)pentanoic acid] | 1800 nM | – | –
12 | CCCCCN(CCOC(C)=O)C(=O)C(CCC(=O)O)CS(=O)(=O)c1ccc2ccccc2c1 (stereo not shown) [Compound No. 50, 4-[N-(2-Acetoxyethyl)-N-pentylcarbamoyl]-5-(2-naphtylsulfonyl)pentanoic acid] | 200 nM | – | –
13 | CCCCCN(CC(=O)N1CCCCC1)C(=O)C(CCC(=O)O)CS(=O)(=O)c1ccc2ccccc2c1 (stereo not shown) [Compound No. 51, 5-(2-Naphthylsulfonyl)-4-(N-pentyl-N-piperidinocarbonylmethylcarbamoyl)pentanoic acid] | 400 nM | – | –
14 | CCCCCN(CCCCC)C(=O)C(CCC(=O)O)CS(=O)(=O)c1ccc2ccccc2c1 (stereo not shown) [compound 20] | 29 nM | 2600 nM | 9.6 mg/kg
15 | CCCCCN(CCC(=O)OCC)C(=O)C(CCC(=O)O)CS(=O)(=O)c1ccc2ccccc2c1 (stereo not shown) [compound 21] | 400 nM | 2900 nM | –
16 | CCCCCN(CC(=O)OC(C)C)C(=O)C(CCC(=O)O)CS(=O)(=O)c1ccc2ccccc2c1 (stereo not shown) [compound 24] | 44 nM | – | –
17 | CCCCCN(CC(=O)OC(C)(C)C)C(=O)C(CCC(=O)O)CS(=O)(=O)c1ccc2ccccc2c1 (stereo not shown) [compound 25] | 49 nM | – | 8 mg/kg

Row | SMILES | IC50 (CCK-receptor) | IC50 (isolated gallbladder) | ED50 (amylase secretion)
18 | CCCCCN(CC(=O)N(C)C)C(=O)C(CCC(=O)O)CS(=O)(=O)c1ccc2ccccc2c1 (stereo not shown) [compound 27] | 2200 nM | – | –
19 | CCCCCN(CC(=O)N(CC)CC)C(=O)C(CCC(=O)O)CS(=O)(=O)c1ccc2ccccc2c1 (stereo not shown) [compound 28] | 210 nM | – | –
20 | CCCCCN(CC(=O)N(C(C)C)C(C)C)C(=O)C(CCC(=O)O)CS(=O)(=O)c1ccc2ccccc2c1 (stereo not shown) [compound 29] | 2300 nM | – | –
21 | CCCCCN(CC(=O)NC(C)C)C(=O)C(CCC(=O)O)CS(=O)(=O)c1ccc2ccccc2c1 (stereo not shown) [compound 30] | 4100 nM | – | –
22 | CCCCCN(CC(=O)NC1CCCCC1)C(=O)C(CCC(=O)O)CS(=O)(=O)c1ccc2ccccc2c1 (stereo not shown) [compound 31] | 2000 nM | – | –
23 | CCCCCN(CCCCC)C(=O)C(CC(=O)O)CS(=O)(=O)c1ccc2ccccc2c1 (stereo not shown) [compound 32] | 290 nM | – | –
24 | CCCCCN(CC(=O)O)C(=O)C(CCC(=O)O)CS(=O)(=O)c1ccc2ccccc2c1 (stereo not shown) [compound 33] | 3400 nM | – | –
25 | CC(=O)OCCN(CCOC(C)=O)C(=O)C(CCC(=O)OCc1ccccc1)CS(=O)(=O)c1ccc2ccccc2c1 (stereo not shown) [compound 35] | 4000 nM | – | –
26 | CCOC(=O)CN(CC(=O)OCC)C(=O)C(CCC(=O)OCc1ccccc1)CS(=O)(=O)c1ccc2ccccc2c1 (stereo not shown) [compound 36, benzyl 4-[N,N-bis(ethoxycarbonylmethyl)carbamoyl]-5-(2-naphthylsulfonyl)pentanoate] | 6500 nM | – | –
27 | C=CCOCCN(CCOCC=C)C(=O)C(CCC(=O)OC)CS(=O)(=O)c1ccc2ccccc2c1 (stereo not shown) [compound 37] | 3100 nM | – | –
28 | CCOC(=O)CN(CCCOC)C(=O)C(CCC(=O)OCc1ccccc1)CS(=O)(=O)c1ccc2ccccc2c1 (stereo not shown) [compound 38] | 110 nM | – | –
29 | CCOC(=O)CN(CC(=O)OCC)C(=O)C(CCC(=O)O)CS(=O)(=O)c1ccc2ccccc2c1 (stereo not shown) [compound 40, 4-[N,N-Bis(ethoxycarbonylmethyl)carbamoyl]-5-(2-naphthylsulfonyl)pentanoic acid] | 2100 nM | – | –
30 | C=CCOCCN(CCOCC=C)C(=O)C(CCC(=O)O)CS(=O)(=O)c1ccc2ccccc2c1 (stereo not shown) [compound 41] | 1400 nM | – | –
31 | CCCCCN(CCOC(=O)C(C)(C)C)C(=O)C(CCC(=O)O)CS(=O)(=O)c1ccc2ccccc2c1 (stereo not shown) [compound 52] | 190 nM | – | –
32 | CCCCCN(CCCN1CCCC1=O)C(=O)C(CCC(=O)O)CS(=O)(=O)c1ccc2ccccc2c1 (stereo not shown) [compound 53] | 220 nM | – | –
33 | CCCCCN(CC(=O)N1CCOCC1)C(=O)C(CCC(=O)O)CS(=O)(=O)c1ccc2ccccc2c1 (stereo not shown) [compound 54] | 610 nM | – | –
34 | CCCCCN(CC(=O)N1CCCC1)C(=O)C(CCC(=O)O)CS(=O)(=O)c1ccc2ccccc2c1 (stereo not shown) [compound 55] | 900 nM | – | –
